What all share (type): biochemical
In assay [1] the target is T1, Human MMP2 (Homo sapiens, UniProt P08253).
T1 construct: made in house
T1 sequence (P08253 110-660): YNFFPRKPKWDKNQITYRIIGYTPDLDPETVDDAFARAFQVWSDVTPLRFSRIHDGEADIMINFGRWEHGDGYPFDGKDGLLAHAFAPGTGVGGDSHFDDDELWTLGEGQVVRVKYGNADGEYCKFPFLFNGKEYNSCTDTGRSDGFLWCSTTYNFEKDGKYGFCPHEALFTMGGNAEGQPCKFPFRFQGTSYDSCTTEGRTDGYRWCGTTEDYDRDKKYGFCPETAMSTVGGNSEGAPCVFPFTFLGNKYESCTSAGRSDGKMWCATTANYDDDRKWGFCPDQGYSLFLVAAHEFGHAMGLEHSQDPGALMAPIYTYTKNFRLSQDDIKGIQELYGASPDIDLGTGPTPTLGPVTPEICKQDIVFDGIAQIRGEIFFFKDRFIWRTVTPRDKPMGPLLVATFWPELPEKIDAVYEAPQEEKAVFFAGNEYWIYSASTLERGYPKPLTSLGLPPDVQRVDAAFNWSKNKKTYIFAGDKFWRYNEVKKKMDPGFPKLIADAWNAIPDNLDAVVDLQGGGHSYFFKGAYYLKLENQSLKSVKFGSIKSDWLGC
The assay can be described thus: Isolated enzyme assay, MMP2. The text has this:
(§1) A protocol for testing against other matrix metalloproteinases, including MMP9, using expressed and purified pro MMP is described, for instance, by C. Graham Knight et al., (1992) FEBS Lett. 296(3):263-266.

For assay [2], the target named is T2, Human MMP8 (Homo sapiens, UniProt P22894).
T2 construct: made in house
The assay can be described thus: Isolated enzyme assay, MMP8.
Text: as §1

For assay [3], the target named is T3, Human MMP12 (Homo sapiens, UniProt P39900).
T3 construct: Recombinant human MMP12 catalytic domain may be expressed and purified as described by Parkar A. A. et al; made in house
In words: Isolated enzyme assay, MMP12 catalytic domain, fluorogenic substrate. To be noted: recombinant human MMP12 catalytic domain. The method, then:
Recombinant human MMP12 catalytic domain may be expressed and purified as described by Parkar A. A. et al, (2000), Protein Expression and Purification, 20:152. The purified enzyme can be used to monitor inhibitors of activity as follows: MMP12 (50 ng/ml final concentration) is incubated for 60 minutes at room temperature with the synthetic substrate Mac-Pro-Cha-Gly-Nva-His-Ala-Dpa-NH2 in assay buffer (0.1M “Tris-HCl” (trade mark) buffer, pH 7.3 containing 0.1M NaCl, 20 mM CaCl2, 0.020 mM ZnCl and 0.05% (w/v) “Brij 35” (trade mark) detergent) in the presence (5 concentrations) or absence of inhibitors. Activity is determined by measuring the fluorescence at λex 320 nm and λem 405 nm. Percent inhibition is calculated as follows: % Inhibition is equal to the […].

Assay [4] concerns the target T4, Human MMP9 (Homo sapiens, UniProt P14780).
T4 construct: made in house
In words: Isolated enzyme assay, MMP9.
Text: as §1

Assay [5] addresses T5, Human MMP14 (Homo sapiens, UniProt P50281).
T5 construct: made in house
In words: Isolated enzyme assay, MMP14.
Text: as §1

Assay [6] concerns the target T6, Human MMP19 (Homo sapiens, UniProt Q99542).
T6 construct: made in house
T6 sequence (Q99542 98-508): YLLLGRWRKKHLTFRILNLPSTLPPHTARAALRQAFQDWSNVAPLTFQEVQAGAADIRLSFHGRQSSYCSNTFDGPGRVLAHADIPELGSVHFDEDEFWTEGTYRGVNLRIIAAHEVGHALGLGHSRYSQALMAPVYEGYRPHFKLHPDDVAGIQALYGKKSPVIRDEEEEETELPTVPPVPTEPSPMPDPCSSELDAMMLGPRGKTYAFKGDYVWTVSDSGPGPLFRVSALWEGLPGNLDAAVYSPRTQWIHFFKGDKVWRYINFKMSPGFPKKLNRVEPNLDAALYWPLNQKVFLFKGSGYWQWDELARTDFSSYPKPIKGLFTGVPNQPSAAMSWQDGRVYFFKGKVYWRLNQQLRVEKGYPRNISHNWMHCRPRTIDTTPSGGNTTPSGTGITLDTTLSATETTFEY
The assay can be described thus: Isolated enzyme assay, MMP19.
Text: as §1

A word on the IC50: it is the concentration at which inhibition is half-maximal.

T2 sequence (P22894 101-467): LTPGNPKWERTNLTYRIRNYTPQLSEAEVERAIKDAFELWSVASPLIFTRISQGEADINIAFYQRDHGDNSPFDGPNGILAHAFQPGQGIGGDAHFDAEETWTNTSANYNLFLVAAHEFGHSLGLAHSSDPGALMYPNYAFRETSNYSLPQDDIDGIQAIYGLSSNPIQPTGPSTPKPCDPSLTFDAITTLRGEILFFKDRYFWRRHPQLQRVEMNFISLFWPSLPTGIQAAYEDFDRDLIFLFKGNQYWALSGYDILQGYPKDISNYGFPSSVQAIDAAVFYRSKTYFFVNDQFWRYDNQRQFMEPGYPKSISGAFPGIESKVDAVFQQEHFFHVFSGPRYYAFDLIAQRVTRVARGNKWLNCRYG
T4 sequence (P14780 94-707): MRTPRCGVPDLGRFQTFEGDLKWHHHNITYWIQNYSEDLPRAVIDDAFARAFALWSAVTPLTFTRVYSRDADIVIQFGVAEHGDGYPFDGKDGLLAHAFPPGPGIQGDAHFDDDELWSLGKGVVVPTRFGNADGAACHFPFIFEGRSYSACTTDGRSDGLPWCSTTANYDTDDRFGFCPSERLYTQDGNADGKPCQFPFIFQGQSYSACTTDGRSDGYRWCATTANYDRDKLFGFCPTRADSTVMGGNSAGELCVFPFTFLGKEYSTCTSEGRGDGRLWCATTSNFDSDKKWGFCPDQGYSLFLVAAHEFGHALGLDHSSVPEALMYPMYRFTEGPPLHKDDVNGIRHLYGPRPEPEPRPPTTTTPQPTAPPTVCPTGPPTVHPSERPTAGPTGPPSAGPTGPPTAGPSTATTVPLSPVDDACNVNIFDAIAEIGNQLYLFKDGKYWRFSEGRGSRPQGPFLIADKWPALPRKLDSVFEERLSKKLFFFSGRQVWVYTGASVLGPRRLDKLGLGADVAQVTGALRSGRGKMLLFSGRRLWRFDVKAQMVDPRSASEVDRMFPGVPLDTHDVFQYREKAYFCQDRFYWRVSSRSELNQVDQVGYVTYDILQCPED
T3 sequence (P39900 106-263 limits assumed): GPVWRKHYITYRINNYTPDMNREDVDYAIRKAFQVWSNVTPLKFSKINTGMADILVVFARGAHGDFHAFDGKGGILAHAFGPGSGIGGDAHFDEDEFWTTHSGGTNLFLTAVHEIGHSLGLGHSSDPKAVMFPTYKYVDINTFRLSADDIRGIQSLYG

Regarding `O=c1[nH]nc(CCS(=O)(=O)N2CCC(Oc3ccc(Cl)cn3)CC2)[nH]1` [Example 2, 5-[2-({4-[(5-Chloropyridin-2-yl)oxy]piperidin-1-yl}sulfonyl)ethyl]-2,4-dihydro-3H-1,2,4-triazol-3-one], the IC50 in assay [1] came to 1010 nM; in assay [2], 243 nM; in assay [3] it was 65 nM; in assay [4], 318 nM; in assay [5], 6660 nM.
Take `O=c1[nH]nc(CS(=O)(=O)N2CCN(c3ccc(Cl)cc3)CC2)[nH]1` [Example 4, 5-({[4-(4-Chlorophenyl)piperazin-1-yl]sulfonyl}methyl)-2,4-dihydro-3H-1,2,4-triazol-3-one]: the IC50 in assay [1] was found to be 142 nM; in assay [2], 31 nM; in assay [3], 18 nM; in assay [6] it was 64 nM; in assay [4], 414 nM; in assay [5], 1750 nM.
In the case of `O=c1[nH]nc(CS(=O)(=O)N2CC=C(C#Cc3cnc(C(F)(F)F)nc3)CC2)[nH]1` [Example 6, 5-({[4-{[2-(Trifluoromethyl)pyrimidin-5-yl]ethynyl}-3,6-dihydropyridin-1(2H)-yl]sulfonyl}methyl)-2,4-dihydro-3H-1,2,4-triazol-3-one], the half-maximal inhibitory concentration (IC50) was 263 nM in assay [1]; 284 nM in assay [2]; 2.4 nM in assay [3]; 4300 nM in assay [6]; 5.7 nM in assay [4]; 6850 nM in assay [5].
